Reference: patent publication US20080234236A1, “REDUCTION OF ADVERSE EVENTS AFTER PERCUTANEOUS INTERVENTION BY USE OF A THROMBIN RECEPTOR ANTAGONIST” (priority 2007, published 2008)
Where “and” joins values, the source holds several entries; their conditions need not be identical. Identical values can stand only once.

Columns and labels:
[1] = Phase 2 study (P03573): bleeding in secondary cohort undergoing CABG; assay type: in vivo, humans; conditions: for Any bleed, patients (%) / Chest Tube Drainage / TIMI Major/Minor bleeding, patients (%) / Transfusion PRBC, patients (%) / non-TIMI bleeding, patients (%): secondary cohort (CABG treated)
Excerpt: The behavior of SCH 530348 in humans was further studied in a Phase 2 clinical development program. A key safety issue for SCH 530348 is the potential for incremental bleeding when added to standard of care with other oral antiplatelet therapies as well as parenteral antithrombotics. Therefore, a single Phase 2 study (P03573) was completed to evaluate the safety of SCH 530348 in patients at high risk of bleeding events, i.e., those patients undergoing non-emergent PCI (percutaneous coronary intervention). The goals of this Phase 2 study were to: • Evaluate the safety of SCH 530348 in addition to standard of care with respect to TIMI major and minor bleeding; and, • Observe the effects of SCH 530348 on major adverse cardiac events (“MACE”) in patients successfully completing an interventional procedure.
The use of TIMI bleeding classification alone is of limited value and can be misleading in defining bleeding risk in patients undergoing CABG because of the routine use of packed red blood cell (“PRBC”) transfusions to prime the pump and extracorporeal oxygenator, and the resultant decline in hemoglobin that results from the administration of parenteral fluids during surgery. Therefore, other clinically meaningful measures (e.g., chest tube drainage, transfusions, need for re-exploration) were examined.

platelets [2] = assay: Pharmacodynamic substudy: TRAP induced platelet aggregation (light aggregometry); assay type: in vivo, humans; conditions: for Tested population achieving clinically relevant inhibition of platelet aggregation: thirty and sixty days; for Maximum inhibition of TRAP-induced platelet aggregation: 1-2 hours post dose
Procedure: (§1) A pharmacodynamic substudy incorporating light aggregometry was performed under stringent physiologic conditions and read by a central core laboratory. […] The term “therpeutically effective amount of a thrombin receptor antagonist” will be understood to mean that quantity of the thrombin receptor antagonist sufficient to achieve at least 80% inhibition of TRAP mediated platelet aggregation.

platelets [3] = assay: Collagen-induced platelet aggregation; assay type: in vivo, humans; conditions: collagen 5 and 50 μg/ml; loading and maintenance doses
Procedure: as §1
(§2) Similarly, there is no effect on arachidonic acid (“AA”) -induced platelet aggregation (see FIGS. 16 and 17) or collagen-induced platelet aggregation (see FIGS. 18-21).

platelets [4] = assay: Platelet activation (expression of P-selectin or CD40 ligand); parameters: species or system humans; conditions: in vivo
Coagulation parameters = assay: Coagulation parameters; parameters: species or system humans; conditions: in vivo
Excerpt: as §2

[5] = Bleeding time by modified Ivy method; parameters: species or system humans; conditions: in vivo
[6] = in vivo
Excerpt: The Phase 2 study was a randomized, double-blind, placebo-controlled, multicenter, dose-escalation study in men and women with symptoms of coronary heart disease undergoing nonurgent PCI.

CCOC(=O)N[C@@H]1CC[C@@H]2[C@@H](C1)C[C@H]1C(=O)O[C@H](C)[C@H]1[C@H]2/C=C/c1ccc(-c2cccc(F)c2)cn1.O=S(=O)(O)O [SCH 530348, ethyl [(1R,3aR,4aR,6R,8aR,9S,9aS)-9-[(E)-2-[5-(3-fluorophenyl)-2-pyridinyl]ethenyl]-dodecahydro-1-methyl-3-oxonaphtho[2,3-c]furan-6-yl] carbamate bisulfate]
Total chest tube drainage, proportion with >2 units PRBC transfusion, need for re-exploration versus placebo ([1]; patients who underwent CABG): no increase
Any bleed, patients (%) ([1]; 10 mg loading dose): 100%
Chest Tube Drainage ([1]; 10 mg loading dose): 1393 mL
TIMI Major/Minor bleeding, patients (%) ([1]; 10 mg loading dose): 90%
Transfusion PRBC, patients (%) ([1]; 10 mg loading dose): 80%
non-TIMI bleeding, patients (%) ([1]; 10 mg loading dose): 30% and 20%
Any bleed, patients (%) ([1]; 20 mg loading dose): 100%
Chest Tube Drainage ([1]; 20 mg loading dose): 1015 mL
TIMI Major/Minor bleeding, patients (%) ([1]; 20 mg loading dose): 94%
Transfusion PRBC, patients (%) ([1]; 20 mg loading dose): 50%
non-TIMI bleeding, patients (%) ([1]; 20 mg loading dose): 33%
Any bleed, patients (%) ([1]; 40 mg loading dose): 100%
Chest Tube Drainage ([1]; 40 mg loading dose): 870 mL
TIMI Major/Minor bleeding, patients (%) ([1]; 40 mg loading dose): 92%
Transfusion PRBC, patients (%) ([1]; 40 mg loading dose): 63%
non-TIMI bleeding, patients (%) ([1]; 40 mg loading dose): 39%
Any bleed, patients (%) ([1]; All SCH 530348): 100%
Chest Tube Drainage ([1]; All SCH 530348): 988 mL
TIMI Major/Minor bleeding, patients (%) ([1]; All SCH 530348): 94% and 92%
Transfusion PRBC, patients (%) ([1]; All SCH 530348): 62%
non-TIMI bleeding, patients (%) ([1]; All SCH 530348): 35% and 33%
Tested population achieving clinically relevant inhibition of platelet aggregation (platelets [2]; 1.0 mg/day maintenance): 100%
Tested population achieving clinically relevant inhibition of platelet aggregation (platelets [2]; 2.5 mg/day maintenance): 100%
Maximum inhibition of TRAP-induced platelet aggregation (platelets [2]; 20 mg): > 80%
Time to therapeutically effective levels (at least 80%) of platelet inhibition (platelets [2]; 40 mg loading dose): in as little as one hour
Tested population with clinically relevant platelet aggregation inhibition within 2 hours (platelets [2]; 40 mg loading dose (only this dose)): more than 90%
Patients with ≧80% inhibition of TRAP induced platelet aggregation (platelets [2]; 40 mg loading dose, 1 hour): Approximately 68%
Patients with ≧80% inhibition of TRAP induced platelet aggregation (platelets [2]; 40 mg loading dose, 1.5 hours): ~82%
Patients with ≧80% inhibition of TRAP induced platelet aggregation (platelets [2]; 40 mg loading dose, 2 hours): ~96%
Maximum inhibition of TRAP-induced platelet aggregation (platelets [2]; 40 mg): > 80%
Inhibition of platelet aggregation at thirty and sixty days (platelets [2]; all three maintenance doses (0.5, 1.0, 2.5 mg)): clinically relevant inhibition of platelet aggregation
Inhibition of TRAP-induced platelet aggregation, dose dependency (platelets [2]; in vivo): dose-related inhibition
Inhibition of TRAP-induced platelet aggregation (platelets [2]; multiple doses of 1 mg/day): significantly inhibited
Inhibition of TRAP-induced platelet aggregation (platelets [2]; single doses as low as 5 mg): significantly inhibited
Effect on collagen-induced platelet aggregation (platelets [3]): no effect
Platelet activation (expression of P-selectin or CD40 ligand) (platelets [4]): without activating platelets
Affecting coagulation parameters (Coagulation parameters): without
Increasing bleeding time as measured by a modified Ivy method [5]: without
Discontinuation of study drug for any adverse event, patients (%) [6]: 6%
Patients completing the sixty day treatment period (%) [6]: 84%
